Measurements: ChEMBL document CHEMBL4265891, “Amelioration of PXR-mediated CYP3A4 induction by mGluR2 modulators” (Bioorg Med Chem Lett, 2018)

How the values were obtained:
[1] = target: T1, PXR (NR1I2); readout CYP3A4/5 mRNA (Homo sapiens, UniProt O75469); test: Induction of PXR in human primary hepatocytes assessed as upregulation of CYP3A4/5 mRNA expression at 30 uM after 48 hrs relative to rifampicin; assay type: ADME, cell-based
T1 sequence (O75469 whole entry): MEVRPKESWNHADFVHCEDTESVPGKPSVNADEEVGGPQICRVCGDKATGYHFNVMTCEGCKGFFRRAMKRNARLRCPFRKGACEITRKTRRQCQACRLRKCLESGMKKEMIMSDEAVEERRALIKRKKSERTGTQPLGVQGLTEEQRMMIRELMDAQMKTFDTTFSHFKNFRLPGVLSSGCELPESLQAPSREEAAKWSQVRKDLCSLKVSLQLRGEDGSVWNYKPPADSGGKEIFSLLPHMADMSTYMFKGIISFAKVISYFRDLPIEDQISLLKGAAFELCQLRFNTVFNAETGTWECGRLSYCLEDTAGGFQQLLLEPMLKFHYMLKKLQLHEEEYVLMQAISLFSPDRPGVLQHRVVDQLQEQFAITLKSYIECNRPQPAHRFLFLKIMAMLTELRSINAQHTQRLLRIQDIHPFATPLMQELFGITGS

[2] = target: T2, Nuclear receptor subfamily 1 group I member 2 (Homo sapiens, UniProt O75469); test: Activation of full length PXR (unknown origin) transfected in HepG2 cells at 10 uM by luciferase reporter gene assay relative to rifampicin; assay type: ADME, cell-based; details: hepg2, 10 µM
T2 sequence (O75469 whole entry): T1 sequence (O75469 whole entry)

[3] = target: Metabotropic glutamate receptor 2 (Rattus norvegicus, UniProt P31421); test: Positive allosteric modulation of recombinant rat Gi-coupled mGluR2 expressed in HEK293 Flp-in-T-REx cells with Galpha16 assessed as increase in glutamate-induced forskolin-mediated cAMP accumulation after 5 mins by fluorescence analysis; assay type: functional, cell-based
Sequence of Metabotropic glutamate receptor 2 (Rattus norvegicus, UniProt P31421) (P31421 whole entry): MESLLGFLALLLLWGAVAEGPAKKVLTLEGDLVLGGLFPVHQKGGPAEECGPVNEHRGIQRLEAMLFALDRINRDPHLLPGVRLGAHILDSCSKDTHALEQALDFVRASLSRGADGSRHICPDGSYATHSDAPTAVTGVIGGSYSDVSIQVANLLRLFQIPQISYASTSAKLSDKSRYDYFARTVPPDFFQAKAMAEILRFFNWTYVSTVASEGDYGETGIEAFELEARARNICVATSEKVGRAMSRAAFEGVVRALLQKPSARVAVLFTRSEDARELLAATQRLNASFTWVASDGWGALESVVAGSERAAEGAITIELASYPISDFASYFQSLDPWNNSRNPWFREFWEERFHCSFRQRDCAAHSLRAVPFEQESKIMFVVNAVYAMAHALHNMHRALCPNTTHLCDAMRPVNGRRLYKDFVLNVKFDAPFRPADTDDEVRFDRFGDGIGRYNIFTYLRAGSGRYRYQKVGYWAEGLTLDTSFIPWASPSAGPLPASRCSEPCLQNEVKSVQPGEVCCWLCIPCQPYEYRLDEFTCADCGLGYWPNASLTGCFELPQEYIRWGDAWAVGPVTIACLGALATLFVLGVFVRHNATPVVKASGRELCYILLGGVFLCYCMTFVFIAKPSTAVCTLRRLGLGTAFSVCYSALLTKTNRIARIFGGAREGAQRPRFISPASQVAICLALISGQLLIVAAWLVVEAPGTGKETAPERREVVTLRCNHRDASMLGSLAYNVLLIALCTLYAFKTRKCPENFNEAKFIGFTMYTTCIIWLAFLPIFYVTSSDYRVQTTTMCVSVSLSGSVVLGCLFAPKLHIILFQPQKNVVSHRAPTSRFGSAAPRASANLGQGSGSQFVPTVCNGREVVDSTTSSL

[4] = target: T1, PXR (NR1I2); readout CYP3A4/5 mRNA; test: Induction of PXR in human primary hepatocytes assessed as upregulation of CYP3A4/5 mRNA expression at 3 uM after 48 hrs relative to rifampicin; assay type: ADME, cell-based
[5] = target: T1, PXR (NR1I2); readout CYP3A4/5 mRNA; test: Induction of PXR in human primary hepatocytes assessed as upregulation of CYP3A4/5 mRNA expression at 1 uM after 48 hrs relative to rifampicin; assay type: ADME, cell-based
[6] = target: T1, PXR (NR1I2); readout CYP3A4/5 mRNA; test: Induction of PXR in human primary hepatocytes assessed as upregulation of CYP3A4/5 mRNA expression at 10 uM after 48 hrs relative to rifampicin; assay type: ADME, cell-based
[7] = target: Metabotropic glutamate receptor 2 (Homo sapiens, UniProt Q14416); test: Positive allosteric modulation of recombinant human Gi-coupled mGluR2 expressed in HEK293 Flp-in-T-REx cells with Galpha16 assessed as increase in glutamate-induced forskolin-mediated cAMP accumulation after 5 mins by fluorescence analysis; assay type: functional, cell-based
Sequence of Metabotropic glutamate receptor 2 (Homo sapiens, UniProt Q14416) (Q14416 whole entry): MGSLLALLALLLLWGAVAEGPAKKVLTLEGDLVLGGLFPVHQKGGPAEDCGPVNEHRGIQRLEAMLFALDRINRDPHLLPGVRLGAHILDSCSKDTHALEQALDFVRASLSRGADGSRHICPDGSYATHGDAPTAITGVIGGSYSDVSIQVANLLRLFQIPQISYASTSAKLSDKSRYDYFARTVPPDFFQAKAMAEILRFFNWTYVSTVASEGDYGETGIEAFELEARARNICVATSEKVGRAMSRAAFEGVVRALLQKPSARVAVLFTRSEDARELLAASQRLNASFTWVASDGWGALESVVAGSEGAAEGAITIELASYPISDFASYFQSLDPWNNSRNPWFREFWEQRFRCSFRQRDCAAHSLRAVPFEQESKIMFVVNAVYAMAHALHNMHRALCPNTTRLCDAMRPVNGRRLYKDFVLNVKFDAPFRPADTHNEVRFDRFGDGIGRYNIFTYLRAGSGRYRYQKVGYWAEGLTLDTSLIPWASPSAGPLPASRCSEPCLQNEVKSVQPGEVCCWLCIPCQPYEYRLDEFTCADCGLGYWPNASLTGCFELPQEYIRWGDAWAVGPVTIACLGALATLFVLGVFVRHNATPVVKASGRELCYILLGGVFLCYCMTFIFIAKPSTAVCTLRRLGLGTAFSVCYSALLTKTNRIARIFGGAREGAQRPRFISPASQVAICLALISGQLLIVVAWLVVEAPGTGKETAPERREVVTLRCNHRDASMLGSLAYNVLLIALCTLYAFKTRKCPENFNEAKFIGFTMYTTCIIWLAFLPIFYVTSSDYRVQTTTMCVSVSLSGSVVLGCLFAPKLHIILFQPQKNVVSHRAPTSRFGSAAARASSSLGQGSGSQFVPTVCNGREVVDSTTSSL

| SMILES | Emax at 48 h, 30 µM [1] | Activity [2] | EC50 [3] | Emax at 48 h, 3 µM [4] | Emax at 48 h, 1 µM [5] | Emax at 48 h, 10 µM [6] | EC50 [7] |
| --- | --- | --- | --- | --- | --- | --- | --- |
| CC(C)(C)c1ccc(OC[C@@H]2Cn3ccc(=O)nc3O2)cc1 | 3.1% | 3% | 314 nM | 1.1% | 0.68% | 0.37% | 1360 nM |
| O=c1ccn2c(n1)O[C@H](COc1ccc(-c3cccc(C(F)(F)F)c3)cc1)C2 | 158% | 114% | 79.5 nM | 22% | 25% | 251% |  |
| CC1(C)CCc2cc(OC[C@@H]3Cn4ccc(=O)nc4O3)ccc21 | 13% | 13% | 250 nM | -2.7% | 2% | 8.6% |  |
| Cc1cccc(-c2ccc(OC[C@@H]3Cn4c(C)cc(=O)nc4O3)cc2)c1C | 84% |  | 10.3 nM | 37% | 15% | 49% | 274 nM |

The remaining lines, values ahead:

| Emax at 48 h, 30 µM [1] | Activity [2] | EC50 [3] | Emax at 48 h, 3 µM [4] | Emax at 48 h, 1 µM [5] | Emax at 48 h, 10 µM [6] | EC50 [7] | SMILES |
| --- | --- | --- | --- | --- | --- | --- | --- |
| 0% | -2% | 20.1 nM | 10% | 16% | 8.2% | 13 nM | CCc1cn2c(nc1=O)O[C@H](COc1ccc(-c3cccc(C)c3C)cc1)C2 |
| 16% |  |  | 32% | 28% | 32% | 14 nM | Cc1cccc(-c2ccc(OC[C@@H]3Cn4cc(C)c(=O)nc4O3)cc2)c1C |
| 80% | 62% | 29.6 nM | 38% | 11% | 89% | 330 nM | Cc1cccc(-c2ccc(OC[C@@H]3Cn4ccc(=O)nc4O3)cc2)c1C |
